The target in test [1] is T1, KRAS (WT) (Homo sapiens, UniProt P01116).
T1 construct: Biotinylated KRAS protein amino acids 1-169 (produced at Erasca); made in house
Nature of the test: In-vitro RAS-RAF binding assay (RRB), HTRF/FRET. The test is classed as biochemical. As for the experimental part: (§1) Biotinylated KRAS protein amino acids 1-169 (produced at […]) is labeled with streptavidin-terbium (lanthanide cryptate donor fluorophore) in assay buffer (50 mM HEPES, pH 7.5, 100 mM NaCl, 1 mM MgCl2, 1 mM DTT) at a final concentration of 30 nM. In a separate reaction mixture, 30 nM cRAF (RBD) (Abcam, Cambridge MA) is labeled with anti-GST d2 (acceptor fluorophore). Labeling reactions are incubated for 1 hour at room temperature. […] Following the compound incubation, SOS1 catalytic domain (produced at […]) and GTPgS are added to the reaction to initiate nucleotide exchange (60 minutes exchange reaction). Once in the GTP state KRAS will bind to cRAF. No binding will occur if KRAS remains in the GDP state. Compounds may block nucleotide exchange or may create a steric obstruction to cRAF-KRAS interaction by binding to the RAS effector site. […] A portion of this mixture is transferred to a white 384-well plate (20 uL per well in duplicate) and read on an HTRF compatible plate reader (ClarioSTAR). Fluorescent resonance energy transfer (FRET) is measured at equilibrium. FRET signal will be high if KRAS-cRAF binding occurs. FRET signal will be low if KRAS-cRAF binding is inhibited by the test compound. Table 2 represents the average of multiple runs of each compound.
For orientation: In TR-FRET formats the signal depends on donor and acceptor labels being close together.

Test [2] concerns the target KRAS G12D (Homo sapiens, UniProt P01116, G12D). Nature of the test: In-vitro RAS-RAF binding assay (RRB), HTRF/FRET. The test is classed as biochemical. The arrangement: Biotinylated KRAS protein amino acids 1-169 (produced at Erasca); made in house. As for the experimental part:
as §1

Where [3] appears, read: Table 2, average of multiple runs of each compound, read-out: Inhibition of RAS-RAF Binding (in-vitro) KRAS (WT) IC50.
The mark [4] stands for this setting: Table 2, average of multiple runs of each compound, read-out: Inhibition of RAS-RAF Binding (in-vitro) KRAS (G12D) IC50.

Read-outs that look alike come from different tables or passages of the source.

T1 sequence (P01116 1-169 isoform P01116-2): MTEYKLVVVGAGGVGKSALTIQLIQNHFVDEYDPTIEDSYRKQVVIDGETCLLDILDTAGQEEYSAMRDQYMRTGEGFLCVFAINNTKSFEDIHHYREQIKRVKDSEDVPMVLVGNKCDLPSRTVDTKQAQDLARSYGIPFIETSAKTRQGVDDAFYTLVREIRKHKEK
Chain of KRAS G12D (P01116 1-169 isoform P01116-2 G12D): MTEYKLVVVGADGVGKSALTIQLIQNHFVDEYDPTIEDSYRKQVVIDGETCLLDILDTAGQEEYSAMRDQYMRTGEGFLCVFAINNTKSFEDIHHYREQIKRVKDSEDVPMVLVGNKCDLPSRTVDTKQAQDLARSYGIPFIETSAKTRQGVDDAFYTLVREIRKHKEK

Broadly, the IC50 is the concentration that gives 50% inhibition. As for `C[C@H](NC(=O)[C@@H]1C[C@@H](O)CN1C(=O)[C@@H](NC(=O)CCOCCCN1CCC[C@H]1COc1nc(N2CC3CCC(C2)N3)c2cc(Cl)c(-c3ccc(F)c4sc(N)c(C#N)c34)c(F)c2n1)C(C)(C)C)c1ccc(-c2ccccc2Cl)cc1` [Example 25, (2S,4R)-1-((2S)-2-(3-(3-((2S)-2-(((7-(2-amino-3-cyano-7-fluorobenzo[b]thiophen-4-yl)-4-(3,8-diazabicyclo[3.2.1]octan-3-yl)-6-chloro-8-fluoroquinazolin-2-yl)oxy)methyl)pyrrolidin-1-yl)propoxy)propanamido)-3,3-dimethylbutanoyl)-N—((S)-1-(2′-chloro-[1,1′-biphenyl]-4-yl)ethyl)-4-hydroxypyrrolidine-2-carboxamide], the IC50 in test [1] (setting [3]) was 107 nM; in test [2] (setting [4]) it was 12 nM.
`C#Cc1c(F)ccc2cc(O)cc(-c3ncc4c(N5CC6CCC(C5)N6)nc(OC[C@@H]5CCCN5CCCOCCC(=O)N[C@H](C(=O)N5C[C@H](O)C[C@H]5C(=O)N[C@@H](C)c5ccc(-c6c(F)cccc6F)cn5)C(C)(C)C)nc4c3F)c12` [Example 30, (2S,4R)-1-((2S)-2-(3-(3-((2S)-2-(((4-(3,8-diazabicyclo[3.2.1]octan-3-yl)-7-(8-ethynyl-7-fluoro-3-hydroxynaphthalen-1-yl)-8-fluoropyrido[4,3-d]pyrimidin-2-yl)oxy)methyl)pyrrolidin-1-yl)propoxy)propanamido)-3,3-dimethylbutanoyl)-N—((S)-1-(5-(2,6-difluorophenyl)pyridin-2-yl)ethyl)-4-hydroxypyrrolidine-2-carboxamide]: the values for the concentration for half-maximal inhibition (IC50) in test [1] (setting [3]) and in test [2] (setting [4]) were 22.3 nM and 7.59 nM, respectively.
In the case of `C#Cc1c(F)ccc2cc(O)cc(-c3ncc4c(N5CC6CCC(C5)N6)nc(OC[C@@H]5CCCN5CCCC5CCC(=O)N5[C@H](C(=O)N5C[C@H](O)C[C@H]5C(=O)N[C@@H](C)c5ccc(-c6scnc6C)cc5)C(C)(C)C)nc4c3F)c12` (stereo partly drawn) [Example 10, (2S,4R)-1-((2S)-2-(2-(3-((2S)-2-(((4-(3,8-diazabicyclo[3.2.1]octan-3-yl)-7-(8-ethynyl-7-fluoro-3-hydroxynaphthalen-1-yl)-8-fluoropyrido[4,3-d]pyrimidin-2-yl)oxy)methyl)pyrrolidin-1-yl)propyl)-5-oxopyrrolidin-1-yl)-3,3-dimethylbutanoyl)-4-hydroxy-N—((S)-1-(4-(4-methylthiazol-5-yl)phenyl)ethyl)pyrrolidine-2-carboxamide], the IC50 in test [1] (setting [3]) stood at 134 nM; in test [2] (setting [4]) it was 12.7 nM.
On to `C#Cc1c(F)ccc2cc(O)cc(-c3ncc4c(N5CC6CCC(C5)N6)nc(OC[C@@H]5CCCN5CCCOCCC(=O)N[C@H](C(=O)N5C[C@H](O)C[C@H]5C(=O)N[C@@H](C)c5ccc(N6CCC[C@H]6C(N)=O)cc5)C(C)(C)C)nc4c3F)c12` [Example 46, (2S,4R)-1-((2S)-2-(3-(3-((2S)-2-(((4-(3,8-diazabicyclo[3.2.1]octan-3-yl)-7-(8-ethynyl-7-fluoro-3-hydroxynaphthalen-1-yl)-8-fluoropyrido[4,3-d]pyrimidin-2-yl)oxy)methyl)pyrrolidin-1-yl)propoxy)propanamido)-3,3-dimethylbutanoyl)-N-((S)-1-(4-((S)-2-carbamoylpyrrolidin-1-yl)phenyl)ethyl)-4-hydroxypyrrolidine-2-carboxamide], for which the IC50 in test [1] (Inhibition of RAS-RAF Binding (in-vitro) KRAS (WT) IC50 (nM), Table 2, average of multiple runs of each compound) stood at 21.4 nM; in test [2] (Inhibition of RAS-RAF Binding (in-vitro) KRAS (G12D) IC50 (nM), Table 2, average of multiple runs of each compound), 5.87 nM.
In the case of `C#Cc1c(F)ccc2cc(O)cc(-c3ncc4c(N5CC6CCC(C5)N6)nc(OC[C@@H]5CCCN5CCCOCCC(=O)N[C@H](C(=O)N5C[C@H](O)C[C@H]5C(=O)N[C@@H](CO)c5ccc(-c6scnc6C)cc5)C(C)(C)C)nc4c3F)c12` [Example 29, (2S,4R)-1-((2S)-2-(3-(3-((2S)-2-(((4-(3,8-diazabicyclo[3.2.1]octan-3-yl)-7-(8-ethynyl-7-fluoro-3-hydroxynaphthalen-1-yl)-8-fluoropyrido[4,3-d]pyrimidin-2-yl)oxy)methyl)pyrrolidin-1-yl)propoxy)propanamido)-3,3-dimethylbutanoyl)-4-hydroxy-N—((R)-2-hydroxy-1-(4-(4-methylthiazol-5-yl)phenyl)ethyl)pyrrolidine-2-carboxamide], the results for the IC50 in test [1] (setting [3]) and in test [2] (setting [4]) were 27.9 nM and 9.31 nM, respectively.
Take `Cc1cc(N)nc(-c2c(Cl)cc3c(N4CC5CCC(C4)N5)nc(OC[C@@H]4CCCN4CCCOCCC(=O)N[C@H](C(=O)N4C[C@H](O)C[C@H]4C(=O)NCc4ccc(-c5scnc5C)cc4)C(C)(C)C)nc3c2F)c1C(F)(F)F` [Example 2, (2S,4R)-1-[(2S)-2-[3-[3-[(2S)-2-[[7-[6-amino-4-methyl-3-(trifluoromethyl)-2-pyridyl]-6-chloro-4-(3,8-diazabicyclo[3.2.1]octan-3-yl)-8-fluoro-quinazolin-2-yl]oxymethyl]pyrrolidin-1-yl]propoxy]propanoylamino]-3,3-dimethyl-butanoyl]-4-hydroxy-N-[[4-(4-methylthiazol-5-yl)phenyl]methyl]pyrrolidine-2-carboxamide]: the IC50 in test [1] (Table 1, read-out: Inhibition of RAS-RAF Binding (in-vitro) KRAS (WT) IC50) turned out to be 4250 nM; in test [1] (setting [3]) it was 4250 nM; in test [2] (Table 1, read-out: Inhibition of RAS-RAF Binding (in-vitro) KRAS (G12D) IC50) it was 17 nM; in test [2] (setting [4]), 17.2 nM.
For `C#Cc1c(F)ccc2cc(O)cc(-c3ncc4c(N5CC6CCC(C5)N6)nc(OC[C@@H]5CCCN5CCCOCCCC(=O)N[C@H](C(=O)N5C[C@H](O)C[C@H]5C(=O)N[C@@H](C)c5ccc(-c6c(F)cccc6F)cc5)C(C)(C)C)nc4c3F)c12` [Example 34, (2S,4R)-1-((2S)-2-(4-(3-((2S)-2-(((4-(3,8-diazabicyclo[3.2.1]octan-3-yl)-7-(8-ethynyl-7-fluoro-3-hydroxynaphthalen-1-yl)-8-fluoropyrido[4,3-d]pyrimidin-2-yl)oxy)methyl)pyrrolidin-1-yl)propoxy)butanamido)-3,3-dimethylbutanoyl)-N—((S)-1-(2′,6′-difluoro-[1,1′-biphenyl]-4-yl)ethyl)-4-hydroxypyrrolidine-2-carboxamide], the IC50 in test [1] (setting [3]) was determined as 63.4 nM; in test [2] (setting [4]), 9.91 nM.
As for `C#Cc1c(F)ccc2cc(O)cc(-c3ncc4c(N5CC6CCC(C5)N6)nc(OC[C@@H]5CCCN5CCCOCCC(=O)N[C@H](C(=O)N5C[C@H](O)C[C@H]5C(=O)N[C@@H](C)c5ccc(-c6cccnc6C(F)(F)F)cc5)C(C)(C)C)nc4c3F)c12` [Example 48, (2S,4R)-1-((2S)-2-(3-(3-((2S)-2-(((4-(3,8-diazabicyclo[3.2.1]octan-3-yl)-7-(8-ethynyl-7-fluoro-3-hydroxynaphthalen-1-yl)-8-fluoropyrido[4,3-d]pyrimidin-2-yl)oxy)methyl)pyrrolidin-1-yl)propoxy)propanamido)-3,3-dimethylbutanoyl)-4-hydroxy-N-((S)-1-(4-(2-(trifluoromethyl)pyridin-3-yl)phenyl)ethyl)pyrrolidine-2-carboxamide], the IC50 was determined as 24.7 nM in test [1] (setting [3]) and 7.53 nM in test [2] (setting [4]).
`C#Cc1c(F)ccc2cc(O)cc(-c3ncc4c(N5CC6CCC(C5)N6)nc(OC[C@@H]5CCCN5CCCOCCC(=O)N[C@H](C(=O)N5C[C@H](O)C[C@H]5C(=O)N[C@@H](C)c5ccc(-c6c(F)c(F)c(F)c(F)c6F)cc5)C(C)(C)C)nc4c3F)c12` [Example 59, (2S,4R)-1-((2S)-2-(3-(3-((2S)-2-(((4-(3,8-diazabicyclo[3.2.1]octan-3-yl)-7-(8-ethynyl-7-fluoro-3-hydroxynaphthalen-1-yl)-8-fluoropyrido[4,3-d]pyrimidin-2-yl)oxy)methyl)pyrrolidin-1-yl)propoxy)propanamido)-3,3-dimethylbutanoyl)-4-hydroxy-N-((S)-1-(2′,3′,4′,5′,6′-pentafluoro-[1,1′-biphenyl]-4-yl)ethyl)pyrrolidine-2-carboxamide]: the results for the IC50 in test [1] (setting [3]) and in test [2] (setting [4]) were 73.1 nM and 7.52 nM, respectively.
In the case of `C[C@H](NC(=O)[C@@H]1C[C@@H](O)CN1C(=O)[C@@H](NC(=O)CCCCN1CCC[C@H]1COc1nc(N2CC3CCC(C2)N3)c2cnc(-c3cc(O)cc4cccc(F)c34)c(F)c2n1)C(C)(C)C)c1ccc(-c2ccccc2)cc1` [Example 83, (2S,4R)-1-((2S)-2-(5-((2S)-2-(((4-(3,8-diazabicyclo[3.2.1]octan-3-yl)-8-fluoro-7-(8-fluoro-3-hydroxynaphthalen-1-yl)pyrido[4,3-d]pyrimidin-2-yl)oxy)methyl)pyrrolidin-1-yl)pentanamido)-3,3-dimethylbutanoyl)-N-((S)-1-([1,1′-biphenyl]-4-yl)ethyl)-4-hydroxypyrrolidine-2-carboxamide], the IC50 in test [1] (setting [3]) was 484 nM; in test [2] (setting [4]) it was 7.7 nM.

The record behind these values is US20240293558A1, “KRAS INHIBITOR CONJUGATES” (Erasca, Inc., priority 2021, published 2024).
